# Experimental data published in PMC10150354, “Linearization of the Brevicidine and Laterocidine Lipopeptides Yields Analogues That Retain Full Antibacterial Activity” (Journal of Medicinal Chemistry, 2023).
# Where a SMILES comes first, the peptide text is derived from it. [ ]: non-standard residue; d: D form. The star is where a group is joined. ξ: configuration not given here. Hexanoyl(4ξ-Me) = CCC(C)CCC(=O)*; dOrn = NCCC[C@@H](N)C(=O)O; Orn = NCCC[C@H](N)C(=O)O
# Columns and labels:
# E. coli (MCR-1) = type: cell-based, Escherichia coli; conditions: microbroth dilution per CLSI, MHB, 18 h at 37 °C, visual inspection, three technical replicates, E. coli 25922 carrying mcr-1
# In short: (§1)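 CLSI broth microdilution in MHB, polypropylene plates; log-phase bacteria (OD600 ~0.5, grown in TSB, with kanamycin for the E. coli ATCC 25922 MCR-1 strain) added at 2 × 10^5 CFU/mL. Read visually after 18 h at 37 °C with shaking; MIC = lowest concentration preventing visible growth, three technical replicates.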
# E. coli ATCC 25922 = type: cell-based, Escherichia coli
# In short: as §1
# S. aureus USA300 = type: cell-based, Staphylococcus aureus; conditions: microbroth dilution per CLSI, MHB, 18 h at 37 °C, visual inspection, three technical replicates
# In short: as §1
# K. pneumoniae ATCC 13883 = type: cell-based, Klebsiella pneumoniae; conditions: microbroth dilution per CLSI, MHB, 18 h at 37 °C, visual inspection, three technical replicates
# In short: as §1
# P. aeruginosa PAO1 = type: cell-based, Pseudomonas aeruginosa; conditions: microbroth dilution per CLSI, MHB, 18 h at 37 °C, visual inspection, three technical replicates
# In short: as §1
# [1] = system: panel of Gram-negative and Gram-positive ESKAPE pathogens; type: cell-based; conditions: against most strains of the panel
# Protocol: Linear laterocidine (LL-OH, 4) and linear brevicidine (LB-OH, 5) were first synthesized by Fmoc SPPS, starting from 2-chlorotrityl (2-CT) chloride resin. The antibacterial activity of these peptides was then compared to brevicidine (1) and laterocidine (2) using minimum inhibitory concentration (MIC)/microbroth dilution assays (Table 1). The MICs of all peptides were determined against a panel of Gram-negative and Gram-positive ESKAPE pathogens. Additionally, a strain of E. coli carrying the mcr-1 gene was included in the panel. The mcr-1 gene is a transferrable plasmid that confers resistance against colistin, a last-resort antibiotic for Gram-negative infections, by reducing the overall negative charge of lipopolysaccharide (LPS) through modification of lipid A with phosphoethanolamine. The propensity for cationic antibiotics to bind to the cell membrane is therefore reduced. This gene has been observed in more than 27 bacterial species over six continents.[26] The spread of the mcr-1 gene could render colistin ineffectual; therefore, novel antibacterials are urgently required to overcome this form of resistance.
# All minimum inhibitory concentrations (MICs) were determined according to Clinical and Laboratory Standards Institute (CLSI) guidelines. Blood agar plates were inoculated with glycerol stocks of E. coli ATCC 25922, K. pneumoniae ATCC 13883, A. baumannii ATCC 17961, P. aeruginosa PAO1, and S. aureus USA300. The inoculated agar plates were then incubated for 16 h at 37 °C. Individually grown colonies were subsequently used to inoculate 5 mL aliquots of TSB that were then incubated at 37 °C with shaking at 220 rpm. E. coli 25922 MCR-1 glycerol stock was used to inoculate 5 mL of TSB supplemented with kanamycin that was then incubated for 16 h at 37 °C with shaking at 220 rpm. The next day the culture was diluted 100-fold in TSB supplemented with kanamycin and incubated at 37 °C with shaking at 220 rpm. In parallel, the lipopeptide antibiotics DMSO stocks to be assessed were serially diluted with MHB in polypropylene 96-well plates (50 μL in each well). Colistin sulfate stocks were dissolved in water before being diluted with MHB. Aliquots of the inoculated TSB were incubated until an OD600 of around 0.5 was reached. The bacterial suspensions were then diluted with MHB (2 × 10^5 CFU/mL) and added to the microplates containing the test compounds (50 μL to each well). The well plates were sealed with an adhesive membrane and after 18 h of incubation at 37 °C with shaking at 600 rpm, the wells were visually inspected for bacterial growth. MIC values reported are based on three technical replicates and defined as the lowest concentration of the compound that prevented visible growth of bacteria.
# A. baumannii ATCC 17961 = type: cell-based, Acinetobacter baumannii; conditions: microbroth dilution per CLSI, MHB, 18 h at 37 °C, visual inspection, three technical replicates
# In short: as §1
smiles,measurement,setting,value
CCC(C)CCC(=O)N[C@H](CC(N)=O)C(=O)N[C@H](Cc1ccc(O)cc1)C(=O)N[C@H](Cc1c[nH]c2ccccc12)C(=O)N[C@H](CCCN)C(=O)N[C@@H](CCCN)C(=O)NCC(=O)N[C@H](CCCN)C(=O)N[C@@H](Cc1c[nH]c2ccccc12)C(=O)N[C@@H](Cc1ccccc1)C(=O)N[C@H](C(=O)NCC(N)=O)[C@@H](C)CC (some centres unmarked) [Δ12LB (Phe9)-NH2 (54)] ({Hexanoyl(4ξ-Me)}-[dN][dY][dW][dOrn][Orn]G[dOrn]WFIG-NH2),Antibacterial activity (MIC) E. coli (MCR-1),E. coli (MCR-1),2 to 4 µg/mL
same,MIC (µg/mL) against E. coli (ATCC 25922),E. coli ATCC 25922; (Supplement 2),4 µg/mL
same,Antibacterial activity (MIC) E. coli ATCC 25922,"E. coli ATCC 25922; MIC, microbroth dilution per CLSI, MHB, 18 h at 37 °C, visual inspection, three technical replicates",2 µg/mL
same,Antibacterial activity (MIC) S. aureus USA300,S. aureus USA300,>32 µg/mL
same,Antibacterial activity (MIC) K. pneumoniae ATCC 13883,K. pneumoniae ATCC 13883,2 to 4 µg/mL
same,Antibacterial activity (MIC) P. aeruginosa PAO1,P. aeruginosa PAO1,4 µg/mL
same,"MIC values, summarised over strains",[1],2 to 4 µg/mL
same,Antibacterial activity (MIC) A. baumannii ATCC 17961,A. baumannii ATCC 17961,4 µg/mL
